Assay [1] deals with T1, p75^NTR receptors (PC12 cells) (Rattus norvegicus, UniProt P07174).
T1 construct: endogenous in cells; host or cells: PC12 cells
T1 sequence (P07174 30-425): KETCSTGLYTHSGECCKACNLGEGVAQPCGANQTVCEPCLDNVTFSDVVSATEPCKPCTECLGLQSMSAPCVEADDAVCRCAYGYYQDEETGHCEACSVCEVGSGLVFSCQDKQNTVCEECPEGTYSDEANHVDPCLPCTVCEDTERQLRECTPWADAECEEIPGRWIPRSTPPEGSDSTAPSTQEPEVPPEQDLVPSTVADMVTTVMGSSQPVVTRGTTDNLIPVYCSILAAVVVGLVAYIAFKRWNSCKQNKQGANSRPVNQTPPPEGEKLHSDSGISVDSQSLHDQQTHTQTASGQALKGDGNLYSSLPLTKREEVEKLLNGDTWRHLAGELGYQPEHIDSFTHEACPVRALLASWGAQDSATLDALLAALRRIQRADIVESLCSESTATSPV
T1 sequence (P23560 129-247 partner): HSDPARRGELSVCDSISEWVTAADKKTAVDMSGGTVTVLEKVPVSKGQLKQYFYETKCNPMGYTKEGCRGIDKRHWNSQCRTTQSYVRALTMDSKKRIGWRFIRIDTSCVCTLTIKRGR
The assay can be described thus: Basic screening assay: binding of 125I-BDNF to PC12 cells. The note with it: read-out: BDNF Activity % Maximal Binding. In short, it runs like this:
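4×10^6 PC12 cells incubated 2 h at 4° C, rotating, with 0.5 nM ^125I-BDNF (final) and compound at 50 μM, in duplicate or more. Bound ligand separated through 10% glycerol by centrifugation and counted by gamma counter; specific binding is Bmax minus NSB; inhibitors followed up for EC50.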

Assay [2] deals with p75^NTR receptors (PC12 cells). The experiment in a line: Basic screening assay: binding of 125I-NGF to PC12 cells. Conditions: test compound 50 μM, 0.5 nM 125I-NGF, PC12 cells, 2 h at 4° C., specific binding as percent of control. In short, it runs like this: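 PC12 cells (4×10^6) incubated 2 h at 4° C with 0.5 nM 125I-NGF and test compound at 50 μM, rotating. Bound tracer pelleted through 10% glycerol and gamma-counted; specific binding expressed as percent of control after NSB subtraction.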

Setting [3] is: Table 1, test compound 50 μM, 0.5 nM 125I-BDNF, PC12 cells, 2 h at 4° C., specific binding as percent of control.
[4] abbreviates: Table 2, test compound 50 μM, 0.5 nM 125I-BDNF, PC12 cells, 2 h at 4° C., specific binding as percent of control.
The mark [5] stands for this setting: Table 4, test compound 50 μM, 0.5 nM 125I-BDNF, PC12 cells, 2 h at 4° C., specific binding as percent of control.

We go through twelve compounds from US20050282840A1, “Methods of modulating neurotrophin-mediated activity” (PainCeptor Pharma Corporation, priority 2004, published 2005).

Where two headings read alike, the source gives them in different places.

Take `Cc1ccc(C(=O)O)cc1-c1ccc(/C=C2/NC(=O)NC2=O)o1` [Compound 22, 3-[5-(2,5-Dioxo-imidazolidin-4-ylidenemethyl)furan-2-yl]-4-methylbenzoic acid]: in assay [1] (setting [3]), the activity at 50 µM lay within 0 to 10%. Besides, in assay [2] (Table 1), the “NGF Activity % Maximal Binding” value was “* (50 < *)”.
The matching figures for `CCCCOC(=O)c1ccc(-c2ccc(/C=C3/SC(=S)N(CC(=O)O)C3=O)o2)cc1` [Compound 12, 4-[5-(3-Carboxymethyl-4-oxo-2-thioxo-thiazolidin-5-ylidenemethyl)furan-2-yl]benzoic acid butyl ester]: 0 to 10% and “* (50 < *)”.
In the case of `CCOC(=O)c1ccc(-c2ccc(C=C3C(=O)NC(=S)NC3=O)o2)cc1` [Compound 99, 4-[5-(4,6-Dioxo-2-thioxo-tetrahydro-pyrimidin-5-ylidenemethyl)furan-2-yl]benzoic acid ethyl ester], the activity at 50 µM in assay [1] is above 50%. Moreover, the “NGF Activity % Maximal Binding” value in assay [2] (Table 4) was “* (50 < *)”.
For `Cc1cc([N+](=O)[O-])ccc1-c1ccc(C=C2SC(=S)NC2=O)o1` [Compound 7, 5-[5-(2-Methyl-4-nitrophenyl)furan-2-ylmethylene]-2-thioxo-thiazolidin-4-one], the activity at 50 µM in assay [1] (setting [3]) was in the range of 0 to 10%. Besides, in assay [2] (Table 1), the “NGF Activity % Maximal Binding” value is “* (50 < *)”.
In the case of `CN1C(=O)S/C(=C/c2ccc(-c3ccc(C(=O)O)c(Cl)c3)o2)C1=O` [Compound 80, 2-Chloro-4-[5-(3-methyl-2,4-dioxo-thiazolidin-5-ylidenemethyl)furan-2-yl]benzoic acid], the activity at 50 µM in assay [1] (setting [4]) fell in the range of 10 to 20%. Further, in assay [2] (Table 2), the “NGF Activity % Maximal Binding” value is given as “X (40 < X < 50)”.
In the case of `CCc1ccc(N2NC(=O)/C(=C/c3ccc(-c4ccc(S(N)(=O)=O)cc4)o3)C2=O)cc1` [Compound 104, 4-{5-[1-(4-Ethylphenyl)-3,5-dioxo-pyrazolidin-4-ylidenemethyl]furan-2-yl}benzenesulfonamide], the activity at 50 µM in assay [1] (setting [5]) is above 50%. Besides, the “NGF Activity % Maximal Binding” value in assay [2] (Table 4) is listed as “* (50 < *)”.
For `O=C1NC(=S)S/C1=C/c1ccc(-c2ccc([N+](=O)[O-])cc2Br)o1` [Compound 100, 5-[5-(2-Bromo-4-nitrophenyl)furan-2-ylmethylene]-2-thioxo-thiazolidin-4-one], the activity at 50 µM in assay [1] (setting [5]) was above 50%. For the same compound, in assay [2] (Table 4), the “NGF Activity % Maximal Binding” value was “* (50 < *)”.
As for `O=C(O)CCCN1C(=O)C(=Cc2ccc(-c3cccc([N+](=O)[O-])c3)o2)SC1=S` [Compound 84, 4-{5-[5-(3-Nitrophenyl)furan-2-ylmethylene]-4-oxo-2-thioxo-thiazolidin-3-yl}-butyric acid], the activity at 50 µM in assay [1] (setting [4]) fell in the range of 40 to 50%. In addition, in assay [2] (Table 2), the “NGF Activity % Maximal Binding” value is listed as “XXXXX (0 < XXXXX < 10)”.
`CN1C(=O)NC(=O)C(=Cc2ccc(-c3cccc([N+](=O)[O-])c3)o2)C1=O` [Compound 78, 1-Methyl-5-[5-(3-nitrophenyl)furan-2-ylmethylene]-pyrimidine-2,4,6-trione]: in assay [1], the activity at 50 µM fell in the range of 10 to 20%. Also, the “NGF Activity % Maximal Binding” value in assay [2] (Table 2) is recorded as “X (40 < X < 50)”.
As for `COC(=O)c1ccc(-c2ccc(/C=C3/NC(=O)N(c4cccc(Cl)c4)C3=O)o2)c(C)c1` [Compound 135, 4-{5-[1-(3-Chlorophenyl)-2,5-dioxo-imidazolidin-4-ylidenemethyl]furan-2-yl}-3-methylbenzoic acid methyl ester], in assay [1] (setting [5]), the activity at 50 µM was above 50%. The “NGF Activity % Maximal Binding” value in assay [2] (Table 4) is “* (50 < *)”.
The matching figures for `Cc1c(C(=O)O)cccc1-c1ccc(/C=C2/NC(=O)N(c3cccc(Cl)c3)C2=O)o1` [Compound 130, 3-{5-[1-(3-Chlorophenyl)-2,5-dioxo-imidazolidin-4-ylidenemethyl]furan-2-yl}-2-methylbenzoic acid]: above 50% and “* (50 < *)”.
Take `Cc1cc(-c2ccc(C=C3C(=O)NC(=O)NC3=O)o2)ccc1[N+](=O)[O-]` [Compound 96, 5-[5-(3-Methyl-4-nitrophenyl)furan-2-ylmethylene]-pyrimidine-2,4,6-trione]: in assay [1], the activity at 50 µM is above 50%. In addition, in assay [2] (Table 4), the “NGF Activity % Maximal Binding” value was “* (50 < *)”.
